We go through three molecules from PMC7515912, “Structural insight into the binding of human galectins to corneal keratan sulfate, its desulfated form and related saccharides” (Scientific Reports, 2020).

Data set [1] deals with T1, Gal-3 CRD (residues 108–250) (Homo sapiens, UniProt P17931).
T1 construct: its Gal-3 CRD (residues 108–250); made in house
In words: 1H-15N HSQC NMR titration of 15N-labeled Gal-3 CRD. It is filed as binding. How it is done: (§1) Uniformly ^15N-labeled Gal-3 (or Gal-7) was dissolved at a concentration of 20 μM in 20 mM potassium phosphate buffer at pH 6.9, made up using a 95% H2O/ 5% D2O mixture. ^1H–^15N HSQC NMR experiments were used to investigate binding of KS or KSDS to Gal-3[39] and Gal-7[90]. NMR experiments were performed at 30 °C on Bruker AVANCE III 700 MHz or 850 MHz spectrometers equipped with cryogenically-cooled z-gradient triple resonance probes. Chemical shift perturbations were monitored, using the sequence-specific ^1H and ^15N resonances assignments for human Gal-3, Gal-3 CRD, and Gal-7. Chemical shifts were internally referenced to DSS (4,4-dimethyl-4-silapentane-1-sulfonic acid). Raw data were converted and processed by using NMRPipe[91] and were analyzed by using NMRview[92].
(§2) Chemical shifts, δ, were referenced to 4,4-dimethyl-4-silapentane-1-sulfonic acid, and chemical shift differences (∆δ) were calculated as [(∆^1H)^2 + (0.25∆^15N)^2 ]^1/2. Intensity changes (∆Intensity) were calculated as (1 − Inti/Into), where Into is the initial resonance intensity and Inti is the intensity upon addition of KS or KSDS or another saccharide. Using this equation, a value of 1 means that that resonance is no longer observable, and 0 means the absence of resonance broadening, with a negative value indicating increased resonance intensity. In chemical shift or resonance broadening maps, the most perturbed resonances are defined as > 2SD above the average or > 1SD above the average. The 50% bound mark was taken from titration curves at 50% bound.

Data set [2] has as its target T2, Gal-3 FL (full-length human Gal-3, residues 1–250) (Homo sapiens, UniProt P17931).
T2 construct: Full-length human Gal-3 (residues 1–250); made in house
Briefly: 1H-15N HSQC NMR titration of 15N-labeled full-length Gal-3. It is filed as binding. How it is done:
as §1, §2

The target in data set [3] is T3, Gal-7 (Homo sapiens, UniProt P47929).
T3 construct: made in house
Briefly: 1H-15N HSQC NMR titration of 15N-labeled Gal-7. It is filed as binding. How it is done: as §1
Chemical shifts, δ, were referenced to 4,4-dimethyl-4-silapentane-1-sulfonic acid, and chemical shift differences (∆δ) were calculated as [(∆^1H)^2 + (0.25∆^15N)^2 ]^1/2. Intensity changes (∆Intensity) were calculated as (1 − Inti/Into), where Into is the initial resonance intensity and Inti is the intensity upon addition of KS or KSDS or another saccharide. Using this equation, a value of 1 means that that resonance is no longer observable, and 0 means the absence of resonance broadening, with a negative value indicating increased resonance intensity. […]

In data set [4] the target is Gal-3 (full-length and CRD) (Homo sapiens, UniProt P17931). In words: PFG NMR diffusion of KS as a function of Gal-3/KS molar ratio. Type of data set: binding. As to the method:
(§3) For pulsed field gradient (PFG) NMR self-diffusion measurements, a solution was made up with KS (4 μM) in 20 mM potassium phosphate buffer with ^2H2O at pD 6.7 adjusted by addition of NaO^2H or ^2HCl. To this solution, ^15N/^13C-labeled Gal-3 (full-length and CRD) dissolved in the same buffer was added at increasing concentrations as molar ratios of [Gal-3]/[KS]. PFG NMR data were acquired at 30 ◦C on a Bruker AVANCE 700 spectrometer, essentially as previously described. For unrestricted diffusion of molecules in isotropic solutions, the PFG NMR signal amplitude, A, normalized to the signal in the absence of gradient pulses, is related to the diffusion coefficient D by Eq. (1):1 A=exp[-γ^2g^2Δ^2D(Δ-[…])]
(§4) where γ is the gyromagnetic ratio, g is the magnitude of the magnetic field gradient pulse, ∆ is the time between gradient pulses. Here, we set g = 1–75 G/cm, ∆ = 34.2 ms, with a longitudinal eddy-current delay of 100 ms. Each D value was determined from a series of 14 1D PFG NMR spectra (256 scans each) using different g values. To derive D values, the gradient-induced change in amplitude of KS resonances at 3.64 and 3.7 ppm was used. In this spectral region, KS resonance intensity was considerably greater than that from Gal-3. In order to decrease Gal-3 resonance intensity further, ^13CH and ^15NH resonances from labeled Gal-3 were not decoupled.

Data set [5] is described as follows: PFG NMR self-diffusion of KS alone. The settings on record: KS 4 μM in the absence of Gal-3; 20 mM potassium phosphate in 2H2O, pD 6.7, 30 °C. Type of data set: physicochemical. How it is done:
as §3, §4

Read-outs that look alike come from different tables or passages of the source. Some results are limits rather than exact numbers.

T1 sequence (P17931 108-250): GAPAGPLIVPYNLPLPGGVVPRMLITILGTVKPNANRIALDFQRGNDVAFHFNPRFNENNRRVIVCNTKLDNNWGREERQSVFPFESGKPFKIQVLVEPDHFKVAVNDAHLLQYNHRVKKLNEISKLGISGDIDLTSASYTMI
T2 sequence (P17931 whole entry, the tested form may be a part): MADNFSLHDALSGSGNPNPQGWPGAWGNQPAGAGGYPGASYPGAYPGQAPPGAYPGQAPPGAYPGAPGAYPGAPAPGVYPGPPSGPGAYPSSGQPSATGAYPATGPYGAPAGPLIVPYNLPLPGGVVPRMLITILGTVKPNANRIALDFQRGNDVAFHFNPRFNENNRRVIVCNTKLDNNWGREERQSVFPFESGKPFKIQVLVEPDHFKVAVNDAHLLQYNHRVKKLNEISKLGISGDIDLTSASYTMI
Gal-3 (full-length and CRD), sequence (P17931 108-250 limits assumed): as the sequence (P17931 108-250) above
T3 sequence (P47929 whole entry): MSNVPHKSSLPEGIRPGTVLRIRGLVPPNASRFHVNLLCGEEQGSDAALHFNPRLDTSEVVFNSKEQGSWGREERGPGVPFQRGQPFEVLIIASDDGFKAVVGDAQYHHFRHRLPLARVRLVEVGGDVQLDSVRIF

Turning to `CC(=O)N[C@H]1C(O)O[C@H](CO)[C@@H](O[C@@H]2O[C@H](CO)[C@H](O)[C@H](O)[C@H]2O)[C@@H]1O` (some centres unmarked) [LacNAc, N-acetyllactosamine, reference compound], the Kd in data set [1] (fast exchange, from chemical shifts vs ligand concentration, Gal-3 CRD 20 μM, pH 6.9, 30 °C, read-out: KD) turned out to be 380 µM; in data set [2] (fast exchange, from chemical shifts vs ligand concentration, Gal-3 FL 20 μM, pH 6.9, 30 °C, read-out: KD) it was 190 µM.

In the case of `CC(=O)N[C@H]1[C@H](O[C@H]2[C@@H](O)[C@@H](CO)O[C@@H](O[C@H]3[C@H](O)[C@@H](O)C(O)O[C@@H]3CO)[C@@H]2O)O[C@H](CO)[C@@H](O)[C@@H]1O[C@@H]1O[C@H](CO)[C@H](O)[C@H](O)[C@H]1O` (some centres unmarked) [LNT, lacto-N-tetraose, reference compound], the Kd in data set [3] (fast exchange, from average ∆δ vs ligand concentration, Gal-7, pH 6.9, 30 °C, read-out: KD) is roughly 500 µM.

In the case of keratan sulfate [KS], the “binding stoichiometry, Gal-3 molecules per KS molecule” value in data set [4] (D trend continues to Gal-3/KS molar ratio of ~6 to 8, both Gal-3 FL and CRD) was no more than 8. The “decrease of KS D value” in data set [4] (upon addition of one mole equivalent of Gal-3) is recorded as “about 40%”. Besides, the Kd in data set [1] (7 μM × 22 sites, assumes the same stoichiometry as KSDS, Gal-3 CRD, read-out: site-average microscopic KD) is 154 µM; in data set [1] (apparent affinity/avidity from average ∆δ vs ligand concentration, 20 μM Gal-3 CRD, 20 mM KPhos, pH 6.9, 30 °C, read-out: 50% change in chemical shift / 50% lectin bound (ligand concentration)), roughly 7 µM; in data set [2] (2 μM × 17 sites, assumes the same stoichiometry as KSDS, Gal-3 FL, read-out: site-average microscopic KD) it was 34 µM; in data set [2] (apparent affinity/avidity from average ∆δ vs ligand concentration, 20 μM Gal-3 FL, 20 mM KPhos, pH 6.9, 30 °C, read-out: 50% change in chemical shift / 50% lectin bound (ligand concentration)), roughly 2 µM; in data set [3] (binding avidity estimated from average ∆δ vs glycosaminoglycan concentration, 20 μM Gal-7, pH 6.9, 30 °C, read-out: 50% Gal-7 loaded with ligand (ligand concentration)) it was roughly 4.5 µM. Also, the “diffusion coefficient D” value in data set [5] was 0.92 × 10^–6 cm^2/s^-1.
